What is called IC50 is the concentration at which inhibition is half-maximal.

The results in this text go back to US10457654B2 (GENENTECH, INC., priority 2017, dated 2019).

Where a name gives a salt, the structure may show the parent alone.

For assay [1], the target named is T1, hNav1.7 (Homo sapiens (Human), UniProt Q15858). Kind of assay: Patch voltage clamp electrophysiology assay (EP), Syncropatch 384PE, CHO cells expressing Nav1.7. In kind it is cell-based. As to conditions: holding potential -50 mV; […] compound incubation; read-out: EP_SP hNav1.7 (Ex. 243B) IC50. The method, boiled down: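 Automated whole-cell patch clamp on CHO cells stably expressing human Nav1.7, CsCl/EGTA internal and NMDG/80 mM Na+ external (pH 7.4). From −50 mV holding, −10 mV step, 20 ms recovery at −150 mV, then second −10 mV pulse where block is measured; inhibition after 7.5 min compound incubation.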
In general terms: Patch clamp records ionic current or voltage across a cell membrane.
Target sequence in this assay (Q15858 other isoform, or with tags, fused parts or gaps): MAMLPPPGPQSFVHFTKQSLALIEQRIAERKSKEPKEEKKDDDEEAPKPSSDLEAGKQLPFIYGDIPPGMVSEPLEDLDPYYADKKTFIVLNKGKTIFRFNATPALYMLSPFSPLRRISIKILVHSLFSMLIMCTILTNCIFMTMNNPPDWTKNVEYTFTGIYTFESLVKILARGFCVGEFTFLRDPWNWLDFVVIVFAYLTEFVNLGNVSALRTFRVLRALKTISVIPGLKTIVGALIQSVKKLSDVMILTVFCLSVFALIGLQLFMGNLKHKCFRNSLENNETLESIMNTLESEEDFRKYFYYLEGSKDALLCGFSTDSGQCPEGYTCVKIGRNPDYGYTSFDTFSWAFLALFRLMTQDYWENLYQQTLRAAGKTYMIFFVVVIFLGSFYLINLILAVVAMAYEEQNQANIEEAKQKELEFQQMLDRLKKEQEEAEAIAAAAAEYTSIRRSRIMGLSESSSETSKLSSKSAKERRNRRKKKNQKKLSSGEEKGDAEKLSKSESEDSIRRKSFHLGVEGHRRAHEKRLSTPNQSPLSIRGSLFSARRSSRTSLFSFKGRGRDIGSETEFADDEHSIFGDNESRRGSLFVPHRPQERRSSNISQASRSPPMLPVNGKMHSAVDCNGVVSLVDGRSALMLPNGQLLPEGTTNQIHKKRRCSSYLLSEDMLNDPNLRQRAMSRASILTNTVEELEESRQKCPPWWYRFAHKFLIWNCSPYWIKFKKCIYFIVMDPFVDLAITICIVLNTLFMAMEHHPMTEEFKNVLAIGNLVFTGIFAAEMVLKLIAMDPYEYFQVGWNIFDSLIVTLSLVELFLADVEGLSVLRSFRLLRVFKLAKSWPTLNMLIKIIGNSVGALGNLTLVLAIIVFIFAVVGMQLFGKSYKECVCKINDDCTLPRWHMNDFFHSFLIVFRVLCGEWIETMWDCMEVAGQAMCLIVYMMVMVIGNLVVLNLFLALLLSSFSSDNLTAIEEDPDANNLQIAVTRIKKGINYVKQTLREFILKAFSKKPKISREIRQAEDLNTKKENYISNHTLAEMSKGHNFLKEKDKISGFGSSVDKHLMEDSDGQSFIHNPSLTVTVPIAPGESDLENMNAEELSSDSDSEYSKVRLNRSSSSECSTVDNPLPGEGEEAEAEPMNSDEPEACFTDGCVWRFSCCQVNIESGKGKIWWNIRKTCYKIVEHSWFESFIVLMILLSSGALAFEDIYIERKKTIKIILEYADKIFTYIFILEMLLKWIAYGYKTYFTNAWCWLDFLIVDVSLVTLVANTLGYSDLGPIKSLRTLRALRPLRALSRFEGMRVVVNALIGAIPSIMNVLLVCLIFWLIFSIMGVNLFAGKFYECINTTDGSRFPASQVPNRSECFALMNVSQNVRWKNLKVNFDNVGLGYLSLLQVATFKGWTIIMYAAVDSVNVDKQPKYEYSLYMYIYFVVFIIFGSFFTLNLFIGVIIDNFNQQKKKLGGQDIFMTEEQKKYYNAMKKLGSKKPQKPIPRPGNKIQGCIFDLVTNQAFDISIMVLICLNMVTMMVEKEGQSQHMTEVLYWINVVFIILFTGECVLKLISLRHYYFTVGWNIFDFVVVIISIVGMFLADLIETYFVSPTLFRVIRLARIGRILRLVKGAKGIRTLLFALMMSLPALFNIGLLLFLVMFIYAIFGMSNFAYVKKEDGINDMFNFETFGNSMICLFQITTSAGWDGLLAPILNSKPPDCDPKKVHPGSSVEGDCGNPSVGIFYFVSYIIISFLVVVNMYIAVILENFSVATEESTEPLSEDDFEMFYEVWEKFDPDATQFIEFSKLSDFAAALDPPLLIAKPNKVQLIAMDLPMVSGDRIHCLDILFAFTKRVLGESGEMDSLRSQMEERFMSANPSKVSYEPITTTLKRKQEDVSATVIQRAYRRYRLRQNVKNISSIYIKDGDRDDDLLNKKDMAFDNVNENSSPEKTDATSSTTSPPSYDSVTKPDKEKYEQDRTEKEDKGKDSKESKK

The target in assay [2] is T1, hNav1.7. Kind of assay: Tritiated compound binding to membranes from cells expressing hNav1.7 and the β1 subunit, competitive binding (LBA, Ex. 243A). As to conditions: 100 pM [3H]compound, 18 h, room temperature; read-out: Nav1.7 LBA (Ex. 243A) IC50.
Target sequence in this assay (Q15858 whole entry, looked up): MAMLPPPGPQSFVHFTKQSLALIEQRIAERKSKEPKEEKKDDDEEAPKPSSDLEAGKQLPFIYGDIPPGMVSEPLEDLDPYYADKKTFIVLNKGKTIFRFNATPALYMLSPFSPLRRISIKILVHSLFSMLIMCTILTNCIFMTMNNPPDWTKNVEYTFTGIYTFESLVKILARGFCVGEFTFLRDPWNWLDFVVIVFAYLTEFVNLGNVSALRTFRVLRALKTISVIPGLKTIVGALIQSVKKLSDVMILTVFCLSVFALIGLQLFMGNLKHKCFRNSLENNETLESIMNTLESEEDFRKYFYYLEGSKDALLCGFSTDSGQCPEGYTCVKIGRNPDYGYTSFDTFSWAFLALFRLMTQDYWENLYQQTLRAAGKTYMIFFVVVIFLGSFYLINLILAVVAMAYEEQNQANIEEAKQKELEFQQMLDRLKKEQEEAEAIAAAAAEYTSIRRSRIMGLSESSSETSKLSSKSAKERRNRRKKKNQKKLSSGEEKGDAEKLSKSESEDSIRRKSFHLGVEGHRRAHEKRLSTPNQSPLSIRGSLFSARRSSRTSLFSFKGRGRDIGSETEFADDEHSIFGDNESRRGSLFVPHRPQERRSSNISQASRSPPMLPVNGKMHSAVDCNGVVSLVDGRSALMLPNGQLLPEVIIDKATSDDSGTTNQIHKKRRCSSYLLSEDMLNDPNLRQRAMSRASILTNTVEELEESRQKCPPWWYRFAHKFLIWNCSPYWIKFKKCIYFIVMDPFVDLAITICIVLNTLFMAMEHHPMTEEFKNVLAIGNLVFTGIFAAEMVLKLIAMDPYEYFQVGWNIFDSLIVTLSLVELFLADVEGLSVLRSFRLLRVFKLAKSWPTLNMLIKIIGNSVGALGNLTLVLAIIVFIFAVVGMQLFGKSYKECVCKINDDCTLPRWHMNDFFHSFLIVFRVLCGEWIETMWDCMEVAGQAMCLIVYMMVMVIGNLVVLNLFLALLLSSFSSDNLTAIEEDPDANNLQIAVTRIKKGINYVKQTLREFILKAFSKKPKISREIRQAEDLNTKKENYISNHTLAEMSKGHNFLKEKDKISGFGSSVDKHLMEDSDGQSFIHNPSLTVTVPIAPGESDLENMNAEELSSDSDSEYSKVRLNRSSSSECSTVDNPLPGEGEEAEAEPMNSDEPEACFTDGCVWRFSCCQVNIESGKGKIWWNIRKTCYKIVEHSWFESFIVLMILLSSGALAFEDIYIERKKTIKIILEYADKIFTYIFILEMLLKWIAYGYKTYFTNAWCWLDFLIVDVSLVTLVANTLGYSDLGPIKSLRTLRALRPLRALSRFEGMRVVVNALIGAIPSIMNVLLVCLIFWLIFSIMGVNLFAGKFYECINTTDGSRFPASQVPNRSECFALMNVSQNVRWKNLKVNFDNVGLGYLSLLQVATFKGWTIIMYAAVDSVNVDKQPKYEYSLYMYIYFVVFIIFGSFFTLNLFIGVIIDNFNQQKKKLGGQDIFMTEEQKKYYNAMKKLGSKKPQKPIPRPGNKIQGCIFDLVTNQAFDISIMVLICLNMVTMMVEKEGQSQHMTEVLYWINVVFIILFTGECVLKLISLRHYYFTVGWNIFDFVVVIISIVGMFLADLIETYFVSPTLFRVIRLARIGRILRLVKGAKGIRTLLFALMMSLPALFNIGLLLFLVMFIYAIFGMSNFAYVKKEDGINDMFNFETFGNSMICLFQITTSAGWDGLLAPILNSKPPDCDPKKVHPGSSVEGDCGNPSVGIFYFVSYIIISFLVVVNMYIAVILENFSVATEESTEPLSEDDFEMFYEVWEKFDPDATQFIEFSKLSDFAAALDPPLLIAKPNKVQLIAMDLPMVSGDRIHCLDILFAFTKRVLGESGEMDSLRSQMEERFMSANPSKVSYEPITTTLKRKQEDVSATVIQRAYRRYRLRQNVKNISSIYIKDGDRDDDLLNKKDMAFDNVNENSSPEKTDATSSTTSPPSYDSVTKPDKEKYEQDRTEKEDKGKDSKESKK
Target sequence in this assay (Q07699 whole entry partner, looked up): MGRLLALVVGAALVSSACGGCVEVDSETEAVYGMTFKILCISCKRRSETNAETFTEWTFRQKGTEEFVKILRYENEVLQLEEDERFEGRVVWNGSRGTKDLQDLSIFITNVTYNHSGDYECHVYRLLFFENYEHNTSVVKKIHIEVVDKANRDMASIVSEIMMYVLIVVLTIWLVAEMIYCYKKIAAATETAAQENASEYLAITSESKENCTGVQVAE
Assay [3] concerns the target T1, hNav1.7. In words: Tritiated compound binding to membranes from cells expressing hNav1.7 and the β1 subunit, modified protocol (LBA, Ex. 243B). As to conditions: 300 pM [3H]compound, room temperature, read-out: Nav1.7 LBA (Ex. 243B) IC50.
Target sequence in this assay (Q15858 whole entry, looked up): as the sequence (Q15858 whole entry, looked up) above
Target sequence in this assay (Q07699 whole entry partner, looked up): as the sequence (Q07699 whole entry partner, looked up) above

`COCCN(C)[C@H]1CCCC[C@@H]1Nc1cc(F)c(S(=O)(=O)Nc2nccs2)cc1Cl` [Example 32, 5-chloro-2-fluoro-4-(((1S,2S)-2-((2-methoxyethyl)(methyl)amino)cyclohexyl)amino)-N-(thiazol-2-yl)benzenesulfonamide formate]: the IC50 in assay [1] was 24.6 nM; in assay [2], 38.2 nM.
As for `O=S(=O)(Nc1nccs1)c1cc(Cl)c(N[C@H]2CCCC[C@@H]2N2CCCC2)cc1F` [Example 30, 5-chloro-2-fluoro-4-(((1S,2S)-2-(pyrrolidin-1-yl)cyclohexyl)amino)-N-(thiazol-2-yl)benzenesulfonamide], the half-maximal inhibitory concentration (IC50) in assay [1] turned out to be 9.77 nM; in assay [2], 9.73 nM.
On to `CN(C1CNC1)[C@H]1CCCC[C@@H]1Oc1cc(F)c(S(=O)(=O)Nc2nccs2)cc1Cl` [Example 66, 4-(((1S,2S)-2-(azetidin-3-yl(methyl)amino)cyclohexyl)oxy)-5-chloro-2-fluoro-N-(thiazol-2-yl)benzenesulfonamide formate], for which the IC50 in assay [1] was found to be 2.91 nM; in assay [2], 2.07 nM; in assay [3] it was 7.74 nM.
Regarding `CN(C)[C@H]1CCCC[C@@H]1Nc1cc(F)c(S(=O)(=O)Nc2cccc(F)n2)cc1Cl` [Example 35, 5-chloro-4-(((1S,2S)-2-(dimethylamino)cyclohexyl)amino)-2-fluoro-N-(6-fluoropyridin-2-yl)benzenesulfonamide], the half-inhibitory concentration (IC50) in assay [1] was 59.9 nM; in assay [2], 65.5 nM; in assay [3], 313 nM.
For `CN(C1CNC1)[C@H]1CCCC[C@@H]1Nc1cc(F)c(S(=O)(=O)Nc2nccs2)cc1Cl` [Example 39, 4-(((1S,2S)-2-(azetidin-3-yl(methyl)amino)cyclohexyl)amino)-5-chloro-2-fluoro-N-(thiazol-2-yl)benzenesulfonamide dihydrochloride], in that order: 1.4 nM, 1.88 nM and 12.8 nM.
For the compound `CN(C1CNC1)[C@H]1CCCC[C@@H]1Nc1cc(F)c(S(=O)(=O)Nc2ccncn2)cc1Cl` [Example 53, 4-(((1S,2S)-2-(azetidin-3-yl(methyl)amino)cyclohexyl)amino)-5-chloro-2-fluoro-N-(pyrimidin-4-yl)benzenesulfonamide], the IC50 in assay [1] is 5.69 nM; in assay [2], 30.5 nM.
Turning to `CN1CC(N(C)[C@H]2CCCC[C@@H]2Nc2cc(F)c(S(=O)(=O)Nc3cccc(F)n3)cc2Cl)C1` [Example 63, 5-chloro-2-fluoro-N-(6-fluoropyridin-2-yl)-4-(((1S,2S)-2-(methyl(1-methylazetidin-3-yl)amino)cyclohexyl)amino)benzenesulfonamide], the results for the IC50 in assay [1] and in assay [2] were 5.35 nM and 9.81 nM, respectively.
Consider `CN1CC(N(C)[C@H]2CCCC[C@@H]2Nc2cc(F)c(S(=O)(=O)Nc3nccs3)cc2Cl)C1` [Example 41, 5-chloro-2-fluoro-4-(((1S,2S)-2-(methyl(1-methylazetidin-3-yl)amino)cyclohexyl)amino)-N-(thiazol-2-yl)benzenesulfonamide formate], for which the IC50 came to 3.4 nM in assay [1] and 4.51 nM in assay [2].
Take `CN(CCO)[C@H]1CCCC[C@@H]1Nc1cc(F)c(S(=O)(=O)Nc2nccs2)cc1Cl` [Example 38, 5-chloro-2-fluoro-4-(((1S,2S)-2-((2-hydroxyethyl)(methyl)amino)cyclohexyl)amino)-N-(thiazol-2-yl)benzenesulfonamide formate]: the IC50 in assay [1] was found to be 3.06 nM; in assay [2], 5.05 nM; in assay [3], 34.9 nM.
As to `CC(O)CN(C)[C@H]1CCCC[C@@H]1Nc1cc(F)c(S(=O)(=O)Nc2nccs2)cc1Cl` (stereo partly drawn) [Example 45, 5-chloro-2-fluoro-4-(((1 S,2S)-2-((2-hydroxypropyl)(methyl)amino)cyclohexyl)amino)-N-(thiazol-2-yl)benzenesulfonamide], the IC50 in assay [2] is 12.7 nM.
The same measure, in the same setting: the figure for `CN(C)[C@H]1CC[C@H](C(F)(F)F)C[C@@H]1Nc1cc(F)c(S(=O)(=O)Nc2nccs2)cc1Cl` [Example 75, 5-chloro-4-(((1S,2S,5S)-2-(dimethylamino)-5-(trifluoromethyl)cyclohexyl)amino)-2-fluoro-N-(thiazol-2-yl)benzenesulfonamide] is 37.9 nM.
